From paper PMC6350621, “Small-molecules that covalently react with a human prolyl hydroxylase – towards activity modulation and substrate capture” (Chemical Communications (Cambridge, England), 2018)

Assays:
PHD2_181–426 = biological target: T1, PHD2_181–426 (Homo sapiens, UniProt Q9GZT9); test: Non-denaturing ESI-MS of covalent adduct formation with PHD2; assay type: binding; conditions: for condensation (covalent adduct) with PHD2 after 5 min: equimolar PHD2 (20 μM), Fe(II) and compound; for covalent reaction with PHD2 after 20 min: equimolar PHD2 and Fe(II), cone voltage 200 V; for covalent modification of PHD2: analogues of 1/2, compared with 1/2
T1 construct: PHD2_181–426 (hereafter PHD2); His6 (N, cleaved yes); made in house; host or cells: bacterial culture (2x TY, kanamycin, IPTG)
T1 sequence (Q9GZT9 181-426): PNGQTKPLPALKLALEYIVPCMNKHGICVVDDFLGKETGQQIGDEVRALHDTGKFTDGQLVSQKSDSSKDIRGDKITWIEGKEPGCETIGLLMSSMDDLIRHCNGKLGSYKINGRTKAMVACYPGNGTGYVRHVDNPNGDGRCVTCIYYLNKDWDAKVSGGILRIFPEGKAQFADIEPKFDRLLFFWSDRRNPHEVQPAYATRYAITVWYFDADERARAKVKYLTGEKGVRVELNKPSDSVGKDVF
Experimental: The interaction of the ligands with PHD2_181–426 (hereafter PHD2) was examined by non-denaturing ESI-MS, using cone voltage variation to distinguish covalent and non-covalent complexes (non-covalent interactions are typically preserved at cone voltages of 50–80 V, and dissociated at 200 V).[16]–[18] Aldehydes 1 and 2 were incubated with equimolar PHD2 and Fe(II) (37 °C; 5 or 20 min). […] Without Fe(II), neither covalent nor non-covalent adducts were observed, implying covalent conjugation involves active site Fe(II) binding, with subsequent condensation.
Fig. S2 A) Schematic representation of the assigned species formed on addition of 1 or 2 to PHD2. The results support initial non-covalent binding of the inhibitors to PHD2.Fe(II) to form B. Subsequently, condensation of a lysine residue with the aldehyde forms the covalent adduct C. (B) and (C): Non-denaturing ESI-MS data support the covalent crosslinking of 1/2 with PHD2. Conditions: PHD2 (20 µM) was incubated (37 °C, 5 or 20 min) with equimolar FeSO4 and 1 or 2, and the resulting mixtures were analysed by ESI-MS (cone voltage: 50 V or 200 V). Labelled peaks correspond to: A: Unmodified PHD2.Fe. B: Non-covalent adduct PHD2.Fe.2. C: Covalent adduct PHD2.Fe.1/2.
Fig. S6 The α,β-unsaturated amide 3 can covalently modify PHD2. (A) Schematic representation of the adducts formed upon incubation of 3 with PHD2.
PHD2. PHD2 (20 µM) was incubated (37 °C, 5 min, 1 h or 2 h) with equimolar FeSO4 and 3 or 4 before analysis by ESI-MS (cone voltage: 50 V or 200 V). Labelled peaks correspond to the following assigned complexes: A: unmodified PHD2.Fe; B: the non-covalent PHD2.Fe.3 adduct; C: the covalent PHD2.Fe.3 adduct.
2. Experimental procedures
1.1.1 Non-denaturing mass spectrometry1
Apo PHD2 was desalted using a Bio-Spin 6 Column (Bio-Rad, Hemel Hempstead, UK) into 15 mM ammonium acetate (pH 7.5). The stock solution was diluted with the same buffer to a final concentration of 100 μM. FeSO4·7H2O was dissolved in 20 mM HCl at a concentration of 100 mM. This solution was then diluted with MilliQ purified water to give a final working concentration of 100 μM. The protein was mixed with the Fe(II) solution and the inhibitor solution to give final concentrations of 20 μM PHD2, 20 μM Fe(II), and 20 μM inhibitor. The resultant solution was incubated for the appropriate time (specified in the text) at 37 […]
(5 min or 20 min) at 37 °C. After incubation, the samples were immediately analysed by ESI-MS. Data were acquired using a Q-TOF mass spectrometer (Q-TOF micro, Micromass, Altrincham, UK) interfaced with a Nanomate (Advion Biosciences, Ithaca, NY, USA) with a chip voltage of 1.70 kV and a delivery pressure 0.5 psi (1 psi = […]). The sample cone voltage was typically 200 or 50 V with a source temperature of 40 °C and with an acquisition/scan time of 10s/1s. Sample acquisition was performed in positive ion mode in the range of 2000-4000 m/z. The pressure at the interface between the atmospheric source and the high vacuum region was fixed at 6.30 mbar. External instrument calibration was achieved using sodium iodide.

PHD2 [1] = biological target: T2, PHD2 (Homo sapiens, UniProt Q9GZT9); test: Peptide turnover assay (CODD hydroxylation) with MALDI-MS detection; assay type: biochemical; conditions: >95% crosslinked PHD2·Fe·compound, 30 µM compound kept in the assay
T2 construct: PHD2_181–426 (hereafter PHD2); His6 (N, cleaved yes); made in house; host or cells: bacterial culture (2x TY, kanamycin, IPTG)
T2 sequence (Q9GZT9 181-426): as above

PHD2 (residues 181-426) [2] = biological target: T3, PHD2 (residues 181-426) (Homo sapiens, UniProt Q9GZT9); test: biochemical
T3 sequence (Q9GZT9 181-426): as above

PHD2 (residues 181-426) [3] = biological target: T3, PHD2 (residues 181-426); test: AlphaScreen antibody based PHD2 inhibition assay; conditions: preincubated versus not
HIF-1α in HeLa cells = test: HIF-1α levels in HeLa cells by anti-HIF-1α immunoblotting; conditions: 6 h
KDM4A = biological target: T4, KDM4A (Homo sapiens, UniProt O75164); test: AlphaScreen assay KDM4A
T4 sequence (O75164 1-1064): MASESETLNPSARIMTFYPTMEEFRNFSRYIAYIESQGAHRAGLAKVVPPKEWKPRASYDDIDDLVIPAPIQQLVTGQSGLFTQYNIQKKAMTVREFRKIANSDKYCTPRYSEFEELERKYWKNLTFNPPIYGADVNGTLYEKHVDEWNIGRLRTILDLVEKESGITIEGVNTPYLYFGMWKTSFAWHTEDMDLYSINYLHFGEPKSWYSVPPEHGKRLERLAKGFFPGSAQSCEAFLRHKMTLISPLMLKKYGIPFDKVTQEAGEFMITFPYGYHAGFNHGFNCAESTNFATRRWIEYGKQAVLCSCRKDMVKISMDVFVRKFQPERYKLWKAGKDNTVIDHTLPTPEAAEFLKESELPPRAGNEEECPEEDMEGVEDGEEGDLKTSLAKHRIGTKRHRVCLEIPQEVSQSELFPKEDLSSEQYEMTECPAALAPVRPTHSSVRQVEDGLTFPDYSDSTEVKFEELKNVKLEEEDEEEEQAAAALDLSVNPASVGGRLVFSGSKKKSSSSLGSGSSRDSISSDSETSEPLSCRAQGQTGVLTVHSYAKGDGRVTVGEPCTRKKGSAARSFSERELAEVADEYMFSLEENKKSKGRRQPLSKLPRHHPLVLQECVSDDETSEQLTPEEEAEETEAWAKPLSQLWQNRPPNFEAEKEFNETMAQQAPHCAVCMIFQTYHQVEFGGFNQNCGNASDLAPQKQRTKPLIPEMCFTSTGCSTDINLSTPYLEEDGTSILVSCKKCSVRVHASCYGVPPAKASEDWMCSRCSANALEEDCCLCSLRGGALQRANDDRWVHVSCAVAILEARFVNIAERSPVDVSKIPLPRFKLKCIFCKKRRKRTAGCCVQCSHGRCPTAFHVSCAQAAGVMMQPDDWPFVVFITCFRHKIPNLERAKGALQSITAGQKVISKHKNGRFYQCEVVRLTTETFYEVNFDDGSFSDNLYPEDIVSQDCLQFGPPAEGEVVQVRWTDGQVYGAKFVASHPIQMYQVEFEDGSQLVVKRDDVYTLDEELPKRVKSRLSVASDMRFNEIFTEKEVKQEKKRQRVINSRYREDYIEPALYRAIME

KDM4D = biological target: T5, KDM4D (Homo sapiens, UniProt Q6B0I6); test: AlphaScreen assay KDM4D
T5 sequence (Q6B0I6 1-523): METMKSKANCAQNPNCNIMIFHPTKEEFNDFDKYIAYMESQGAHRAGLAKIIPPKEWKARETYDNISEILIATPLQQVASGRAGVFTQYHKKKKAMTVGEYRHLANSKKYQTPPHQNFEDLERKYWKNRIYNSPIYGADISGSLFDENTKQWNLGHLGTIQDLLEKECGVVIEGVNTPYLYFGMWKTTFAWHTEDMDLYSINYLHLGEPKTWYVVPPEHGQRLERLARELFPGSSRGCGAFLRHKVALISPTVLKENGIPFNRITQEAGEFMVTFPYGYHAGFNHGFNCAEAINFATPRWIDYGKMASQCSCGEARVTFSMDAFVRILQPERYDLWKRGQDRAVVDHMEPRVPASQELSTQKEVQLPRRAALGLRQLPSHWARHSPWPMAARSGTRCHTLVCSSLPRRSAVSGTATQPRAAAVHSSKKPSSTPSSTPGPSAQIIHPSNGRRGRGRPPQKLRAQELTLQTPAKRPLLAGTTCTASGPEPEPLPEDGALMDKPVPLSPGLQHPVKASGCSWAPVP

KDM5B = KDM5B (Homo sapiens, UniProt Q9UGL1); test: AlphaScreen assay KDM5B
Sequence of KDM5B (Q9UGL1 whole entry, species assumed): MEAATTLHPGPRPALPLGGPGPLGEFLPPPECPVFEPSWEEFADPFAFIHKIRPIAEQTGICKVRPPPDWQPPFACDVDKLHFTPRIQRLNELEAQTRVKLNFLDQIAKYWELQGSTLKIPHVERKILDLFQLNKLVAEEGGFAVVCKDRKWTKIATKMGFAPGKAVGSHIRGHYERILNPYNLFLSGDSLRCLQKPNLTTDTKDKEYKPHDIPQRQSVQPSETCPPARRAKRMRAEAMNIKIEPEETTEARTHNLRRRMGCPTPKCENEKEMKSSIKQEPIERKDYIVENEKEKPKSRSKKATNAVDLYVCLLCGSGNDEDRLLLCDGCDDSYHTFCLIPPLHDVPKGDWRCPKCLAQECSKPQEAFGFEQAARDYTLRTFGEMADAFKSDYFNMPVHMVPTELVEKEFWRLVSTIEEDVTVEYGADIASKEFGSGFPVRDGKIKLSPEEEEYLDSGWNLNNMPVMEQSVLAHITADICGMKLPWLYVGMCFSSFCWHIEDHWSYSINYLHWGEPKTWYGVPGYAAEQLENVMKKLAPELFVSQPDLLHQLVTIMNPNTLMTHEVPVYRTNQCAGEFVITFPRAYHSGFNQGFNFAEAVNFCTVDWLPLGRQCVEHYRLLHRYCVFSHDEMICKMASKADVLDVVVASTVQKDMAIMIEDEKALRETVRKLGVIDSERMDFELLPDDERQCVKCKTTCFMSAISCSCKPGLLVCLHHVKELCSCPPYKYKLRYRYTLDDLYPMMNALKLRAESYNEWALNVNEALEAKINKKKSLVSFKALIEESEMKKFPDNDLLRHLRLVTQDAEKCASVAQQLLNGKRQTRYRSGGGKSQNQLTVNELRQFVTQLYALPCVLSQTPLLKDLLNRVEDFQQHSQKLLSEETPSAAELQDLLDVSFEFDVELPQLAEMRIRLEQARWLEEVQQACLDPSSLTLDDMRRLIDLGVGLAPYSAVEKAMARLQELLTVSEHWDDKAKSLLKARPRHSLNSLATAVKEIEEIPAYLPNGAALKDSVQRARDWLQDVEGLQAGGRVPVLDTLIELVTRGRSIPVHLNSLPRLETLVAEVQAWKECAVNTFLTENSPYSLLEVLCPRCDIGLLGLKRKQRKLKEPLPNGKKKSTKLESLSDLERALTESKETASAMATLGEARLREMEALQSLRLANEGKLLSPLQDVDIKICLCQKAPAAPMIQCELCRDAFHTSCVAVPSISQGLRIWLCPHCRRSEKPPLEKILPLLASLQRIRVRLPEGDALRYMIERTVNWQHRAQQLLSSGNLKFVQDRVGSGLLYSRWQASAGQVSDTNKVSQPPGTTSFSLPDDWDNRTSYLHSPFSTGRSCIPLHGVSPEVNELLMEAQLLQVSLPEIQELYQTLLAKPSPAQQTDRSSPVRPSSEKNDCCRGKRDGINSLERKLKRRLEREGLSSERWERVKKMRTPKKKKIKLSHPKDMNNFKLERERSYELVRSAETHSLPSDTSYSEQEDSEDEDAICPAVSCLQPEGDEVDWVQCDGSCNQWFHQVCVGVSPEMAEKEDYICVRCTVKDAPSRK

KDM6B = KDM6B (Homo sapiens, UniProt O15054); test: AlphaScreen assay KDM6B
Sequence of KDM6B (O15054 whole entry, species assumed): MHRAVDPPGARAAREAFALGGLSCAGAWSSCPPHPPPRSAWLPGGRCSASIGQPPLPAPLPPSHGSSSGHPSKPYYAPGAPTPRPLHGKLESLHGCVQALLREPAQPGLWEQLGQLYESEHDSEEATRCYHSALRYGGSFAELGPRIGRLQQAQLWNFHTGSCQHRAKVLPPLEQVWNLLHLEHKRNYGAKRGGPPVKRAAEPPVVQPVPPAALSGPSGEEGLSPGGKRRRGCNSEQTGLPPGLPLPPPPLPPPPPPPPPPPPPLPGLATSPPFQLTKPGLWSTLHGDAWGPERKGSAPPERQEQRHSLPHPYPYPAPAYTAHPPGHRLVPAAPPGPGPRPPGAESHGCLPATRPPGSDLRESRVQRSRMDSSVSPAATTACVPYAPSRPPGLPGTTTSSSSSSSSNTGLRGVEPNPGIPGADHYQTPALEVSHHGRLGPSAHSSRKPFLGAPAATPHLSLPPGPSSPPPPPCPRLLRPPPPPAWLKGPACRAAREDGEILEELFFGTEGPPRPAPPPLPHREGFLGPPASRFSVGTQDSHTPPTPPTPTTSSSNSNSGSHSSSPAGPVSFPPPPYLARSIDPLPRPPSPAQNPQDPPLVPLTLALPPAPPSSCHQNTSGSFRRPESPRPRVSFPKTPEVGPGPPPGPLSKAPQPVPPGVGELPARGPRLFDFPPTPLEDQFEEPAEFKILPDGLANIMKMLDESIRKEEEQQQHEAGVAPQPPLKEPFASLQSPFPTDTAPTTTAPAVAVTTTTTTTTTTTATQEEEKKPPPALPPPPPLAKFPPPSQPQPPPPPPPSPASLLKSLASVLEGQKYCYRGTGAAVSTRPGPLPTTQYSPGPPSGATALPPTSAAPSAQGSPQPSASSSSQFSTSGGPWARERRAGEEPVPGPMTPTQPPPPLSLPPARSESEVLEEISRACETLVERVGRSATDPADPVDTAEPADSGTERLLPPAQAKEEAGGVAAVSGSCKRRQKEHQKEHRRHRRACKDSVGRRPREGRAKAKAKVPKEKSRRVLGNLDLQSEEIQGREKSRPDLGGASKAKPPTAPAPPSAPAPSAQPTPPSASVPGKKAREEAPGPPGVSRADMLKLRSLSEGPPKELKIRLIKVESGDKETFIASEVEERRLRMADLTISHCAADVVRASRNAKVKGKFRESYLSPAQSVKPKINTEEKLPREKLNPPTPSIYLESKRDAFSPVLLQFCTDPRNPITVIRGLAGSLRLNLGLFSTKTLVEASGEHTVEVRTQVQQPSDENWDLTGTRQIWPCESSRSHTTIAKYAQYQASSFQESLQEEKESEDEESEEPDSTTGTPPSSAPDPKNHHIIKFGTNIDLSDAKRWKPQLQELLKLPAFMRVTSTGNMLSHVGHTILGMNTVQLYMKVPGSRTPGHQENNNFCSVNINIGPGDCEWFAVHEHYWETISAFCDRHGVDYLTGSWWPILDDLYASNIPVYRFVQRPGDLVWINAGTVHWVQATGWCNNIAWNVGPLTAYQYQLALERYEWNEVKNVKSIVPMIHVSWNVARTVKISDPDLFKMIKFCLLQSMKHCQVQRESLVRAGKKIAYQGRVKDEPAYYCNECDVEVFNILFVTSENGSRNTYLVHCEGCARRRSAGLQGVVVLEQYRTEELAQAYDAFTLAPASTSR

PHD2 [4] = test system: PHD2; design: method as in PMID 16782814; conditions: reversible iron-binding inhibitor; cited from earlier work

C=CCc1cccc(C(=O)NCC(=O)O)c1O [compound 4]
covalent adduct with PHD2 after up to 2 h (PHD2_181–426; equimolar PHD2/Fe(II), 37 °C, up to 2 h): No covalent adduct

O=Cc1c(O)c(C(=O)NCC(=O)O)cc2ccccc12 [compound 2]
condensation (covalent adduct) with PHD2 after 5 min (PHD2_181–426; 37 °C): ~30% | covalent reaction with PHD2 after 20 min (PHD2_181–426; 37 °C): react with PHD2 | catalytic activity (CODD hydroxylation) of PHD2 covalently modified by the compound (PHD2 [1]): apparently active | IC50 (PHD2 (residues 181-426) [2]): > 100 µM | drop of IC50 on preincubation (PHD2 (residues 181-426) [3]): ~2 fold | HIF-1α upregulation in HeLa cells (HIF-1α in HeLa cells; 50 or 250 µM): no upregulation of HIF-1α

O=Cc1ccc(O)c(C(=O)NCC(=O)O)c1 [S1]
covalent modification of PHD2 (PHD2_181–426): No covalent modification

O=Cc1cccc(C(=O)NCC(=O)O)n1 [S4]
covalent modification of PHD2 (PHD2_181–426): Some apparent covalent modification

C=CC(=O)Nc1cc(N=[N+]=[N-])cc(C(=O)NCC(=O)O)c1O [compound 7]
IC50 (KDM4A): 18.2 µM | IC50 (KDM4D): 10.3 µM | IC50 (KDM5B): 13.6 µM | IC50 (KDM6B): 8.4 µM

CCOC(=O)CNC(=O)c1cccc(C=O)c1O [compound 5]
HIF-1α upregulation in HeLa cells (HIF-1α in HeLa cells; 0-500 μM): caused upregulation of HIF-1α | HIF-1α upregulation in HeLa cells at high concentrations (HIF-1α in HeLa cells; >250 μM): more pronounced HIF-1α upregulation

O=Cc1cccc(C(=O)NCC(=O)O)c1O [compound 1]
condensation (covalent adduct) with PHD2 after 5 min (PHD2_181–426; 37 °C): complete condensation | covalent reaction with PHD2 after 20 min (PHD2_181–426; 37 °C): react with PHD2 | catalytic activity (CODD hydroxylation) of PHD2 covalently modified by the compound (PHD2 [1]): apparently active | IC50 (PHD2 (residues 181-426) [2]): > 100 µM | drop of IC50 on preincubation (PHD2 (residues 181-426) [3]): ~2 fold | HIF-1α upregulation in HeLa cells (HIF-1α in HeLa cells; 50 or 250 µM): no upregulation of HIF-1α
